Experimental findings from patent US20260315487A1, “IKK-ALPHA INHIBITORS” (Cancer Research Technology Limited, priority 2023, published 2026) are described below.

One assay has as its target T1, IKKβ (Homo sapiens, UniProt O14920).
T1 sequence (O14920 1-756): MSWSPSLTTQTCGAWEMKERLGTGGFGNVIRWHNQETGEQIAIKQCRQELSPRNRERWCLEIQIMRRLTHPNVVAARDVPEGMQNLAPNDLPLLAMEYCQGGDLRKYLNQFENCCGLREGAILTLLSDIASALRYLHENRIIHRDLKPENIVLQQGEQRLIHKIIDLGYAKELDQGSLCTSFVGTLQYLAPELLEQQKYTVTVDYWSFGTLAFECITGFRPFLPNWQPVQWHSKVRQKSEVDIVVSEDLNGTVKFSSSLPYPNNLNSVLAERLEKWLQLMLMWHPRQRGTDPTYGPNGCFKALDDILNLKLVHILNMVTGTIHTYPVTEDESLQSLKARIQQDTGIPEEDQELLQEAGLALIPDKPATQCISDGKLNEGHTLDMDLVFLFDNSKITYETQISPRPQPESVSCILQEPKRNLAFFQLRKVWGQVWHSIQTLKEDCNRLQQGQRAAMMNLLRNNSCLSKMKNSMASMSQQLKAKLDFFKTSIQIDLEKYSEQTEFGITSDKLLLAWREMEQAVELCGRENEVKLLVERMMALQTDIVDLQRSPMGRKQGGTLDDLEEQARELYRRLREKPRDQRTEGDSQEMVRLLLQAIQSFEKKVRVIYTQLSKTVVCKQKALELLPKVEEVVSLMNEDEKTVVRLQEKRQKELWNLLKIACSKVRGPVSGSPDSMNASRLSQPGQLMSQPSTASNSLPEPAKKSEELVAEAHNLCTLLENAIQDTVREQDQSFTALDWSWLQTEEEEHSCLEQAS
Briefly: in-house DELFIA kinase assay, IKKβ. The format is biochemical. The source says: (§1) To examine the pyrrolo[2,3 -b]pyridines as an alternative scaffold, we adopted the AIPP core because it had similar dimensions to 1 SU909, with HBD/HBA motifs positioned at the scaffold extremities to interact with both the hinge region and the G-loop wall of IKKα, a rationale we had previously proposed as the basis for imparting selectivity. A preliminary set of AIPP derivatives was designed to explore its utility as an IKK-targeting scaffold, whilst incorporating additional functionality through which to introduce selectivity for the IKKα isoform (2-4 SU1087, SU1266 and SU1253; FIG. 3). This was achieved by initially adopting two different approaches: either appending a hydrophobic moiety to the pyrrolo[2,3 -b]pyridine motif as a fused form to afford the tricyclic derivatives 2 and 3 SU1266 and SU1087, or as a phenyl substituent to introduce flexibility with the central pyrrolo[2,3 -b]pyridine moiety in 4 SU1253 .

Another assay deals with T2, IKKα (Homo sapiens, UniProt O15111).
T2 sequence (O15111 1-745): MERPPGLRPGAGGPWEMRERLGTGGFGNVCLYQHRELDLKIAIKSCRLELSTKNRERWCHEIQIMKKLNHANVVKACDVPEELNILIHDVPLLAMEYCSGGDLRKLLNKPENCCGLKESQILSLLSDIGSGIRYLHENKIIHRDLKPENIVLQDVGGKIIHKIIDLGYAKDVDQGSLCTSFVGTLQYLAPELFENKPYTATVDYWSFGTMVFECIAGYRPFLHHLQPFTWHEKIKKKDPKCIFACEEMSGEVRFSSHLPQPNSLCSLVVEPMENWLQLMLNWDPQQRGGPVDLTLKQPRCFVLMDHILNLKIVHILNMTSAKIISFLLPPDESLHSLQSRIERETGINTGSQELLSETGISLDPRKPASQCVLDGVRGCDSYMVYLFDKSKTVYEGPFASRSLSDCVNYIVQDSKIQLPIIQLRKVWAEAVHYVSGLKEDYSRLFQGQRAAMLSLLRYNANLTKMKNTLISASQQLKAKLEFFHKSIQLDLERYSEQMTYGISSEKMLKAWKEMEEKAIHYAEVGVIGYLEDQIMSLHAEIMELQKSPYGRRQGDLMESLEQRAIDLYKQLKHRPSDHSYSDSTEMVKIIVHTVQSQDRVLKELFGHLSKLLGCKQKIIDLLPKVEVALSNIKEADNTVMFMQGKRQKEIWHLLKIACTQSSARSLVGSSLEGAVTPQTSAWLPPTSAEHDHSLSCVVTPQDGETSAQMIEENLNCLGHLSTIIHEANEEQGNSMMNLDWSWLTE
Briefly: in-house DELFIA kinase assay, IKKα. The format is biochemical.
From the text: as §1, with “SU1253 . […] The pyrrolo[2,3 -b]pyridine was bound to the hinge region in the classical HBA/HBD motif with the GK+3 NH and C═O backbone, whilst the aminoindazole projected towards the top of the pocket to interact with the G-loop (FIG. 4A). […] In both isoforms, the 2 -phenyl moiety was oriented out from the hinge towards the exposed solvent area.” for “SU1253 .”

A word on the Ki: it is the equilibrium dissociation constant of an inhibitor or competing ligand from its target. Take `Nc1n[nH]c2ccc(-c3ccnc4[nH]c(-c5ccccc5O)cc34)cc12` [5a SU1354, 2-(4-(3 -Amino-1 H-indazol-5-yl)-1 H-pyrrolo[2,3-b]pyridin-2-yl)phenol]: the Ki on IKKβ was 42 nM; on IKKα, 4 nM.

With `Nc1cccc(-c2cc3c(-c4ccc5[nH]nc(N)c5c4)ccnc3[nH]2)c1` [5c SU1304, 5-(2-(3 -Aminophenyl)-1 H-pyrrolo[2,3-b]pyridin-4-yl)-1 H-indazol-3-amine], the Ki on IKKβ was 28 nM; at IKKα it was 5 nM.

In the case of `COc1cc(F)cc(-c2cc3c(-c4ccc5[nH]nc(N)c5c4)ccnc3[nH]2)c1` [5g SU1373, 5-(2-(3 -Fluoro-5-methoxyphenyl)-1 H-pyrrolo[2,3-b]pyridin-4-yl)-1 H-indazol-3-amine], the Ki at IKKβ came to 32 nM; on IKKα it was 3 nM.

Consider `Cc1ccc(S(=O)(=O)Nc2cccc(-c3cc4c(-c5ccc6[nH]nc(N)c6c5)ccnc4[nH]3)c2)cc1` [5t SU1278, N-(3-(4-(3 -Amino-1 H-indazol-5-yl)-1 H-pyrrolo[2,3-b]pyridin-2-yl)phenyl)-4-methylbenzensulfonamide], for which the “IKKβ inhibition, in words” value on IKKβ was “lowest activity against IKKβ”. Further, the Ki at IKKβ stood at 1050 nM; on IKKα, 10 nM.

Consider `Nc1n[nH]c2ccc(-c3ccnc4[nH]c(-c5cccc(OCc6ccccn6)c5)cc34)cc12` [5w SU1324, 5-(2-(3-(pyridin-2-ylmethoxy)phenyl)-1 H-pyrrolo[2,3-b]pyridin-4-yl)-1 H-indazol-3-amine], for which, on IKKβ, the “IKKβ inhibition, in words” value is “lowest activity against IKKβ” and the Ki worked out at 402 nM. The same compound came in with an inhibitory constant (Ki) at IKKα of 16 nM.

As for `Nc1n[nH]c2ccc(-c3ccnc4[nH]c(-c5cc(OCc6ccccc6)ccn5)cc34)cc12` [6j SU1602, 5-(2-(4-(Benzyloxy)pyridin-2-yl)-1 H-pyrrolo[2,3-b]pyridin-4-yl)-1 H-indazol-3-amine], the Ki on IKKβ is 2300 nM; on IKKα, 25 nM.

Regarding `CS(=O)(=O)Nc1cccc(-c2cc3c(-c4ccc5[nH]nc(N)c5c4)ccnc3[nH]2)c1` [5j SU1288, N-(3-(4-(3 -Amino-1 H-indazol-5-yl)-1 H-pyrrolo[2,3-b]pyridin-2-yl)phenyl)methanesulfonamide], the Ki at IKKβ amounted to 109 nM; at IKKα, 3 nM.

Turning to `CCOc1ccccc1-c1cc2c(-c3ccc4[nH]nc(N)c4c3)ccnc2[nH]1` [5b SU1368, 5-(2-(2 -Ethoxyphenyl)-1 H-pyrrolo[2,3-b]pyridin-4-yl)-1 H-indazol-3-amine], the figures for the Ki at IKKβ and at IKKα were 86 nM and 8 nM, respectively.

With `COCCOCc1cc(OCc2ccccc2)cc(-c2cc3c(-c4ccc5[nH]nc(N)c5c4)ccnc3[nH]2)c1` [6b SU1358, 5-(2-(3-(Benzyloxy)-5-((2-methoxyethoxy)methyl)phenyl)-1 H-pyrrolo[2,3-b]pyridin-4-yl)-1 H-indazol-3-amine], the Ki on IKKβ turned out to be 1220 nM; on IKKα, 29 nM.

Regarding `Nc1n[nH]c2ccc(-c3ccnc4[nH]c(-c5cc(O)cc(F)c5)cc34)cc12` [5f SU1384, 3-(4-(3 -Amino-1 H-indazol-5-yl)-1 H-pyrrolo[2,3-b]pyridin-2-yl)-5-fluorophenol], the Ki on IKKβ turned out to be 42 nM; at IKKα it was 4 nM.

Consider `COc1ccc(COc2cccc(-c3cc4c(-c5ccc6[nH]nc(N)c6c5)ccnc4[nH]3)c2)cc1` [5z SU1363, 5-(2-(3-((4 -Methoxybenzyl)oxy)phenyl)-1 H-pyrrolo[2,3-b]pyridin-4-yl)-1 H-indazol-3-amine], for which the inhibition constant Ki on IKKβ is 166 nM; on IKKα, 43 nM.

`NC(=O)c1cccc(-c2cc3c(-c4ccc5[nH]nc(N)c5c4)ccnc3[nH]2)c1` [5i SU1294, 3-(4-(3 -Amino-1 H-indazol-5-yl)-1 H-pyrrolo[2,3-b]pyridin-2-yl)benzamide]: the values for the Ki at IKKβ and at IKKα were 159 nM and 5 nM, respectively.

As to `Nc1n[nH]c2ccc(-c3ccnc4[nH]c(-c5cccc(CNc6ccccc6)c5)cc34)cc12` [5p SU1549, 5-(2-(3-((Phenylamino)methyl)phenyl)-1 H-pyrrolo[2,3-b]pyridin-4-yl)-1 H-indazol-3-amine], on IKKβ, the “IKKβ inhibition, in words” value is reported as “lowest activity against IKKβ” and the Ki worked out at 470 nM. At IKKα, this compound showed an inhibition constant Ki of 35 nM.

For the compound `Nc1n[nH]c2ccc(-c3ccnc4[nH]c(-c5ccccc5OCc5ccccc5)cc34)cc12` [5q SU1353, 5-(2-(2-(Benzyloxy)phenyl)-1 H-pyrrolo[2,3-b]pyridin-4-yl)-1 H-indazol-3-amine], on IKKβ, the “IKKβ inhibition, in words” value is given as “lowest activity against IKKβ” and the Ki is 1060 nM. The same compound had a Ki at IKKα of 57 nM.

For the compound `Nc1n[nH]c2ccc(-c3ccnc4[nH]c(-c5cncc(OCc6ccccc6)c5)cc34)cc12` [6e SU1337, 5-(2-(5-(Benzyloxy)pyridin-3-yl)-1 H-pyrrolo[2,3-b]pyridin-4-yl)-1 H-indazol-3-amine], the Ki was 1550 nM at IKKβ and 21 nM at IKKα.

For the compound `CS(=O)(=O)c1cccc(-c2cc3c(-c4ccc5[nH]nc(N)c5c4)ccnc3[nH]2)c1` [5k SU1374, 5-(2-(3-(Methylsulfonyl)phenyl)-1 H-pyrrolo[2,3-b]pyridin-4-yl)-1 H-indazol-3-amine], the Ki on IKKβ was 36 nM; at IKKα, 3 nM.

For the compound `Nc1n[nH]c2ccc(-c3ccnc4[nH]c(-c5cc(F)cc(OCc6ccccc6)c5)cc34)cc12` [6a SU1371, 5-(2-(3-(Benzyloxy)-5-fluorophenyl)-1 H-pyrrolo[2,3-b]pyridin-4-yl)-1 H-indazol-3-amine], the inhibitory constant (Ki) was found to be 5030 nM on IKKβ and 59 nM on IKKα.

Turning to `Nc1n[nH]c2ccc(-c3ccnc4[nH]c(-c5ccnc(OCCc6ccccc6)c5)cc34)cc12` [6l SU1621, 5-(2-(2 -Phenethoxypyridin-4-yl)-1 H-pyrrolo[2,3-b]pyridin-4-yl)-1 H-indazol-3-amine], the Ki at IKKβ was determined as 1600 nM; at IKKα, 42 nM.

As for `CN1CCN(C(=O)c2cccc(-c3cc4c(-c5ccc6[nH]nc(N)c6c5)ccnc4[nH]3)c2)CC1` [5v SU1312, (3-(4-(3 Amino-1 H-indazol-5-yl)-1 H-pyrrolo[2,3-b]pyridin-2-yl)phenyl)(4-methylpiperazin-1-y)methanone], the inhibition constant Ki on IKKβ is 215 nM; at IKKα, 24 nM.

Turning to `Nc1n[nH]c2ccc(-c3ccnc4[nH]c(-c5cccc(OCCN6CCOCC6)c5)cc34)cc12` [5y SU1336, 5-(2-(3-(2 -Morpholinoethoxy)phenyl)-1 H-pyrrolo[2,3-b]pyridin-4-yl)-1 H-indazol-3-amine], the “IKKβ inhibition, in words” value at IKKβ is reported as “good IKKβ inhibition”. In addition, the Ki on IKKβ was found to be 29 nM; on IKKα, 9 nM.
